Assays:
[1] = tested on: Human lens epithelial cells (SRA01/04); assay: Action on DNA synthesis capability (BrdU uptake) of human lens epithelial cell line; assay type: cell-based; details: 24 hours
Description: Human lens epithelial cells (SRA01/04 (Riken Cell Bank)) were cultured using 20% FBS-DMEM medium under conditions of 37° C. and 5% CO2. The concentration of SRA01/04 was adjusted using 2% FBS-DMEM, and the cells were seeded in a 96 Well Plate at 100 μL/well (5000 cells/well) and cultured under conditions of 37° C. and 5% CO2 for 24 hours. The medium was exchanged with 5% FBS-DMEM medium, and TGFβ at 10 ng/mL (final concentration) or Ripasudil at 10, 30 or 100 μM (final concentration) was added to each well, and the cells were cultured for another 24 hours. The uptake rate of 5-bromo-2′-deoxyuridine (BrdU) in the cells was measured using Cell Proliferation ELISA, BrdU (colorimetric) kit (Roche) at a measurement wavelength of 450 nm by Multiskan MS version 8.0 (LABSYSTEMS), and cell proliferation properties were evaluated.

[2] = tested on: Human lens epithelial cells (HLEpiC); assay: Reversibility of inhibition of actin stress fiber formation after removal; assay type: cell-based; details: recultured about 24 hours after removal
Description: After removal of the test substance, positive control or comparative control in Example 1, the cells were recultured for about another 24 hours, treated in accordance with the operation in Example 1, and then observed by a confocal laser scanning microscope in the same manner as in Example 1 to observe the reversibility of actin stress fibers.

[3] = tested on: HT-1080 cell-containing collagen gel; assay: Inhibitory action on collagen gel contraction; assay type: cell-based; set-up: key: +: a contraction level was almost equal to that of a group to which Ripasudil was not added; ++: contraction was inhibited; +++: contraction was significantly inhibited; details: HT1080 collagen gel, two or three days
Description: HT-1080 cell suspension adjusted to a density of 150000 to 200000 cells/mL with a medium (medium: E'MEM (Sigma)/10% FBS/NEAA/PCSM), and a solution, obtained by mixing A, B and C solutions (A solution: Cellmatrix (Collagen Type I 3 mg/mL), B solution: concentrated culture solution, 10×MEM Hank's culture solution, and C solution: buffer solution for reconstitution) of collagen gel culture kit (Nitta Gelatin Inc.) mixed at a ratio of 8:1:1 and cooling the obtained mixture, were mixed at a ratio of 1.4:1, and the obtained mixture was seeded in a 48 Well Plate at 500 μL/well and gelatinized in a CO2 incubator to produce a cell-containing collagen gel. After gelation, 1 mL of the medium in which Ripasudil was adjusted to 0.1 μM, 1 μM or 10 μM was added on the gel, and an injection needle was inserted between the gel and the wall surface to release the gel from the wall surface, and the gel was incubated to stand in a CO2 incubator. After two or three days, the contraction of the gel was observed, and photos were taken to evaluate the actions of Ripasudil.

HLEpiC = assay: Reversibility of inhibition of cell migration after removal; assay type: cell-based, human; details: for time after removal at which Detection Zone was filled with HLEpiC: then removal
Description: After the operation in Example 4, the test substance, the positive control, or the comparative control was removed, and after brief washing with the medium, the medium was added at 100 μL/well, and the cells were cultured in a carbon dioxide incubator (37° C., 5% CO2).

C[C@H]1CNCCCN1S(=O)(=O)c1cccc2cncc(F)c12 [Ripasudil, 4-fluoro-5-{[(2S)-2-methyl-1,4-diazepan-1-yl]sulfonyl}isoquinoline]
DNA synthesis capability (BrdU uptake) of SRA01/04 ([1]; 30 μM): statistically significant decrease
DNA synthesis capability (BrdU uptake) of SRA01/04 ([1]; 10, 30 or 100 μM): dose-dependent inhibitory action
reversibility of actin stress fibers ([2]; 100 μM): recovered
reversibility of actin stress fibers ([2]; 1 mM): recovered
Inhibition of contraction ([3]; Ripasudil 0.1 μM): +
Inhibition of contraction ([3]; Ripasudil 1.0 μM): ++
Inhibition of contraction ([3]; Ripasudil 10.0 μM): +++
time after removal at which Detection Zone was filled with HLEpiC (HLEpiC; 100 μM treatment): about 24 hours
state of Detection Zone about 48 hours after removal (HLEpiC; 1 mM treatment, about 48 hours after removal): not filled with HLEpiC
time after removal at which Detection Zone was filled with HLEpiC (HLEpiC; 1 mM treatment): 116 h

From patent US9844556B2, “Preventive/therapeutic method and preventive/therapeutic agent for complications after cataract surgery” (KOWA COMPANY, LTD., priority 2015, dated 2017)
